Assay results published in ChEMBL document CHEMBL1201862, “PubChem BioAssay data set” (2004).
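In this assay, cells in 96-well plates receive the compound at five concentrations for 48 hours. Endpoints are linearly interpolated between the surrounding concentrations. GI50 = concentration required for 50% inhibition of growth.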 The source made the active and inactive calls. Rule as the data show it: active = GI50 up to about 1.1 µM and inactive = higher.

Assays:
Experiment in all cases: DTP human tumour cell line panel, 48 h
DLD-1 = system: DLD-1
DMS-273 = system: DMS-273
M19-MEL = system: M19-MEL
HOP-18 = system: HOP-18
KM-20L2 = system: KM-20L2
XF498 = system: XF498
RXF 631 = system: RXF 631
DMS-114 = system: DMS-114
SNB-78 = system: SNB-78

Measured: GI50

Cn1nc(-c2ccccc2)c(C(=O)/C=C/c2ccc(Cl)cc2)c(N2CCCC2)c1=O
inactive: DLD-1 2.69 µM | DMS-273 3.62 µM | M19-MEL 7.24 µM | HOP-18 6.49 µM | KM-20L2 3.78 µM | XF498 10.4 µM | RXF 631 6.12 µM | DMS-114 2.84 µM

CCCCCCCCCCCC(=O)OC[C@@H](C[As](=O)(O)O)OC(=O)CCCCCCCCCCC
inactive: DLD-1 18 µM | DMS-273 3.26 µM | SNB-78 3.39 µM | M19-MEL 6.05 µM | HOP-18 14.5 µM | KM-20L2 13.4 µM | XF498 14.2 µM | DMS-114 2.12 µM

CC(=O)/C=C/c1cccc(N=S)c1
inactive: DLD-1 4.88 µM | DMS-273 7.06 µM | SNB-78 32.8 µM | M19-MEL 6.25 µM | HOP-18 50 µM | KM-20L2 13.8 µM | XF498 > 100 µM | RXF 631 39 µM | DMS-114 23 µM

[N-]=[N+]=Nc1ncnc2c1sc(=S)n2-c1ccccc1
inactive: DLD-1 > 100 µM | DMS-273 > 100 µM | SNB-78 > 100 µM | M19-MEL > 100 µM | HOP-18 > 100 µM | KM-20L2 > 100 µM | XF498 > 100 µM | DMS-114 > 100 µM

COC1(C)CNCC(C)(C)NC(=O)C(C)(OC)CNCC(C)(C)NC1=O (stereo not drawn)
inactive: DLD-1 > 100 µM | DMS-273 > 100 µM | SNB-78 > 100 µM | M19-MEL > 100 µM | HOP-18 > 100 µM | KM-20L2 > 100 µM | RXF 631 > 100 µM | DMS-114 > 100 µM

C=CN1C(=O)[C@H](Oc2ccccc2)[C@@H]1c1ccccc1
inactive: DLD-1 28.5 µM | SNB-78 43.5 µM | M19-MEL 43.4 µM | HOP-18 37.8 µM | KM-20L2 31.7 µM | XF498 26.1 µM | DMS-114 27.6 µM

CC1=NN(C(=O)c2ccc(Cl)cc2)C(=O)/C1=C/c1c(O)cc(O)c2ccccc12
inactive: DLD-1 > 100 µM | SNB-78 > 100 µM | M19-MEL > 100 µM | KM-20L2 > 100 µM | XF498 > 100 µM | DMS-114 > 100 µM

CCN(CC)c1ccc(/N=N/c2ccc(-c3nc4cccnc4s3)cc2)cc1
inactive: DLD-1 > 100 µM | SNB-78 > 100 µM | M19-MEL 7.69 µM | KM-20L2 > 100 µM | XF498 18.2 µM | DMS-114 46.5 µM

CC(=O)Nc1ccc(-c2nnc(SCC(=O)Nc3ccccc3C)o2)cc1
inactive: DLD-1 49.8 µM | DMS-273 35.4 µM | SNB-78 47 µM | M19-MEL 70.1 µM | HOP-18 > 100 µM | KM-20L2 69.3 µM | DMS-114 > 100 µM

CN(C)CC/C(=N\Nc1ccc(Cl)cc1Cl)c1ccccc1
inactive: DLD-1 10.3 µM | DMS-273 13.8 µM | SNB-78 13.5 µM | M19-MEL 17.2 µM | HOP-18 8.85 µM | KM-20L2 14.3 µM | DMS-114 13.8 µM

CN(C=O)/C=C/c1cc(O)ccc1O
inactive: DLD-1 20 µM | DMS-273 > 39.4 µM | SNB-78 30.8 µM | M19-MEL 20.8 µM | HOP-18 14.6 µM | KM-20L2 > 46 µM | RXF 631 47.5 µM | DMS-114 45.9 µM

COC(CC1(OC)OC(=O)C=C1N)OC (stereo not drawn)
inactive: DLD-1 > 100 µM | DMS-273 > 100 µM | SNB-78 > 100 µM | M19-MEL > 100 µM | HOP-18 > 100 µM | DMS-114 > 100 µM

O=C1c2ccccc2C(=O)N1C/C=N/NS(=O)(=O)c1cccc([N+](=O)[O-])c1
inactive: DLD-1 > 100 µM | DMS-273 > 100 µM | M19-MEL > 100 µM | KM-20L2 > 100 µM | XF498 > 100 µM | DMS-114 > 100 µM

C=C1C(=O)OC2/C=C(/C)C3CC(O)C(C)(CC(OC(=O)/C(C)=C/C)C12)O3 (stereo not drawn)
inactive: DLD-1 1.54 µM | DMS-273 2.54 µM | SNB-78 2.61 µM | M19-MEL 2.96 µM | HOP-18 17.4 µM | KM-20L2 2.32 µM | XF498 3.56 µM | DMS-114 7.01 µM

O=C(Nc1nc2ccccc2n1Cc1ccccc1)NC12CC3CC(CC(C3)C1)C2
inactive: DLD-1 87.9 µM | DMS-273 16.9 µM | SNB-78 19.8 µM | M19-MEL 61.4 µM | HOP-18 44.8 µM | KM-20L2 > 100 µM | XF498 17.8 µM | DMS-114 57.3 µM

CNC1=Nc2ccc(Cl)cc2C(OP(=O)(N2CCOCC2)N2CCOCC2)=NC1
inactive: DLD-1 > 100 µM | DMS-273 > 100 µM | SNB-78 > 100 µM | M19-MEL > 100 µM | HOP-18 > 100 µM | KM-20L2 > 100 µM | XF498 > 100 µM | RXF 631 > 100 µM | DMS-114 > 100 µM

CCOC(=O)C1=C(c2ccccc2)NC(c2ccccc2)=C(C(=O)OCC)c2c1c(=O)cc[nH]c2=O
inactive: DLD-1 > 100 µM | DMS-273 > 100 µM | SNB-78 94 µM | M19-MEL > 100 µM | KM-20L2 > 100 µM | XF498 > 100 µM | RXF 631 34.7 µM

CC(=O)CC(=O)CCC(=O)Nc1cccc(C(F)(F)F)c1
inactive: DLD-1 > 100 µM | DMS-273 > 100 µM | SNB-78 > 100 µM | HOP-18 > 100 µM | KM-20L2 > 100 µM | XF498 > 100 µM | DMS-114 > 100 µM

O=c1cc(-c2cccnc2)[nH]c2cc3c(cc12)OCO3
inactive: DLD-1 4.03 µM | DMS-273 4.13 µM | SNB-78 27.7 µM | M19-MEL 3.59 µM | HOP-18 1.17 µM | XF498 7.36 µM | DMS-114 7.01 µM

Cn1cc(NC(=O)c2cc(NC(=O)CCCCCC(=O)Nc3cc(C(=O)Nc4cc(C(=O)NCCC(=N)N)n(C)c4)n(C)c3)cn2C)cc1C(=O)NCCC(=N)N
inactive: DLD-1 > 100 µM | DMS-273 67.3 µM | SNB-78 > 100 µM | M19-MEL 15.2 µM | HOP-18 > 100 µM | KM-20L2 > 100 µM | XF498 > 100 µM | RXF 631 > 100 µM | DMS-114 33 µM

N#C/C(=C/c1cccc2ccccc12)C(=O)c1ccccc1
inactive: SNB-78 42.9 µM | M19-MEL 28.4 µM | KM-20L2 19 µM | XF498 20.1 µM | DMS-114 51.6 µM

O=C(c1ccccc1)N1C2C3CC(OCc4ccccc4)(OCc4ccccc4)C(O3)C21 (stereo not drawn)
inactive: DLD-1 > 100 µM | SNB-78 > 100 µM | M19-MEL > 100 µM | KM-20L2 > 100 µM | XF498 > 100 µM | RXF 631 > 100 µM | DMS-114 > 100 µM

O=c1cccccc1O.O=c1cccccc1O.O=c1cccccc1O.[SiH4]
inactive: DLD-1 6.43 µM | DMS-273 14.5 µM | M19-MEL 18.8 µM | HOP-18 65.9 µM | KM-20L2 3.75 µM | XF498 17.7 µM | DMS-114 11.7 µM

C1CN1c1nc(N2CC2)nc(N2CC2)n1
inactive: DLD-1 18.4 µM | DMS-273 1.31 µM | M19-MEL 12.3 µM | HOP-18 17.5 µM | KM-20L2 15.1 µM | XF498 4.89 µM | RXF 631 11.3 µM | DMS-114 2.99 µM

N#CC(C#N)=C(N)/C(C#N)=C/c1cc(O)c(O)c(Br)c1
inactive: DLD-1 55.6 µM | DMS-273 59.2 µM | SNB-78 75.7 µM | M19-MEL > 100 µM | KM-20L2 31.7 µM | XF498 35.7 µM | DMS-114 29.1 µM
